Reference: patent US4695545A, “Culture and process for producing A41030 antibiotics” (Eli Lilly and Company, priority 1984, dated 1987)
≈ marks a conversion by molar mass, not a printed value.

How the values were obtained:
[1] = Electrometric titration (pKa); type: physicochemical; settings: electrometric titration in 66% dimethylformamide in water; stated as possible
Description: Antibiotic A41030 factor A is a white, crystalline solid.

Solubility in solvents = type: physicochemical; settings: qualitative
Description: As many as seven antibiotic factors are recovered from the fermentation and are obtained as a mixture, the A41030 complex. It will be recognized that the ratio of the factors in the A41030 complex will vary, depending upon the fermentation conditions used. The individual factors A, B, C, D, E, F, and G are separated and isolated as individual compounds, as hereinafter described.

Propionibacterium acnes [2] = experiment: MIC against Propionibacterium acnes strains, 24-hour agar-dilution; type: cell-based
Description: Antibiotic A41030 factors A, B and C have been tested and found to be active against a genus of anaerobic bacteria identified as Propionibacterium acnes.

Clostridium difficile [3] = experiment: MIC anaerobic bacteria, agar-dilution; type: cell-based; settings: Clostridium difficile 2994; agar-dilution (Table 9)
Clostridium perfringens = type: cell-based; settings: Clostridium perfringens 81; agar-dilution
Clostridium septicum = experiment: MIC anaerobic bacteria, agar-dilution; type: cell-based; settings: Clostridium septicum 1128
Peptococcus prevoti = experiment: MIC anaerobic bacteria, agar-dilution; type: cell-based; settings: Peptococcus prevoti 1281
[4] = test system: Peptostreptococcus anaerobius; experiment: MIC anaerobic bacteria, agar-dilution; type: cell-based; settings: Peptostreptococcus anaerobius 1428
[5] = test system: Peptostreptococcus intermedius; experiment: MIC anaerobic bacteria, agar-dilution; type: cell-based; settings: Peptostreptococcus intermedius 1264
Propionibacterium acnes [6] = experiment: MIC anaerobic bacteria, agar-dilution; type: cell-based; settings: Propionibacterium acnes 79; agar-dilution (Table 9)
Bacteroides fragilis = experiment: MIC anaerobic bacteria, agar-dilution; type: cell-based
[7] = test system: Bacteroides thetaiotaomicron; experiment: MIC anaerobic bacteria, agar-dilution; type: cell-based; settings: Bacteroides thetaiotaomicron 1438
[8] = test system: Bacteroides melaninogenicus; experiment: MIC anaerobic bacteria, agar-dilution; type: cell-based; settings: Bacteroides melaninogenicus 2736
Bacteroides vulgatis = experiment: MIC anaerobic bacteria, agar-dilution; type: cell-based; settings: Bacteroides vulgatis 1211
Bacteroides corrodens = experiment: MIC anaerobic bacteria, agar-dilution; type: cell-based; settings: Bacteroides corrodens 1874
Fusobacterium symbiosum = experiment: MIC anaerobic bacteria, agar-dilution; type: cell-based; settings: Fusobacterium symbiosum 1470
[9] = test system: Fusobacterium necrophorum; experiment: MIC anaerobic bacteria, agar-dilution; type: cell-based; settings: Fusobacterium necrophorum 6054A
Clostridium difficile [10] = experiment: MIC against Clostridium difficile strains, agar-dilution; type: cell-based
Description: The A41030 antibiotic factors A, B, C, D, E, F, and G, are also active against a number of strains of Clostridium difficile, as determined by the agardilution method.

Staphylococcus aureus = experiment: MIC aerobic bacteria, standard agar-dilution assay; type: cell-based; settings: Staphylococcus aureus S13E; agar-dilution, 24 hours
[11] = test system: Staphylococcus epidermidis; experiment: MIC aerobic bacteria, standard agar-dilution assay; type: cell-based; settings: Staphylococcus epidermidis EPI2, 24 hours
Streptococcus pyogenes = experiment: MIC aerobic bacteria, standard agar-dilution assay; type: cell-based; settings: Streptococcus pyogenes C203, 24 hours
Streptococcus pneumoniae = experiment: MIC aerobic bacteria, standard agar-dilution assay; type: cell-based; settings: Streptococcus pneumoniae Park I, 24 hours
[12] = test system: Streptococcus sp. Group D; experiment: MIC aerobic bacteria, standard agar-dilution assay; type: cell-based
Haemophilus influenzae = experiment: MIC aerobic bacteria, standard agar-dilution assay; type: cell-based
S. pyogenes = experiment: In vivo oral activity against S. pyogenes in mice
pseudorabies = type: cell-based
[13] = mice

SMILES: NC1C(=O)NC2Cc3ccc(c(Cl)c3)Oc3cc4cc(c3O)Oc3ccc(cc3Cl)C(O)C3NC(=O)C(NC(=O)C4NC(=O)C(NC2=O)c2cc(O)cc(c2)Oc2cc1ccc2O)c1cc(Cl)c(O)c(c1)-c1c(O)cc(O)cc1C(C(=O)O)NC3=O (stereo not drawn) [factor A, A41030 factor A]
- possibly additional pKa's [1]: > 10.5
- solubility (solvents) (Solubility in solvents): soluble in alcohol-water mixtures, in dimethylsulfoxide, in dimethylformamide, in dimethylsulfoxide-water mixtures, in dimethylformamide-water mixtures, in dilute aqueous acid, and in dilute aqueous base
- MIC (Propionibacterium acnes [2]; P. acnes strain 104): 0.25 µg/mL (≈ 0.203 µM)
- MIC (Propionibacterium acnes [2]; P. acnes strain 107): 0.06 µg/mL (≈ 0.0486 µM)
- MIC (Propionibacterium acnes [2]; P. acnes strain 5170): ≤ 0.03 µg/mL
- MIC (Propionibacterium acnes [2]; P. acnes strain 5176): ≤ 0.03 µg/mL
- MIC (Propionibacterium acnes [2]; P. acnes strain 5187): ≤ 0.03 µg/mL
- MIC (Propionibacterium acnes [2]; P. acnes strain 5197): ≤ 0.03 µg/mL
- MIC (Propionibacterium acnes [2]; P. acnes strain 5226): 0.5 µg/mL (≈ 0.405 µM)
- MIC (Propionibacterium acnes [2]; P. acnes strain 5227): ≤ 0.03 µg/mL
- MIC (Propionibacterium acnes [2]; P. acnes strain 5228): 1.0 µg/mL (≈ 0.811 µM)
- MIC (Propionibacterium acnes [2]; P. acnes strain 5229): 0.5 µg/mL (≈ 0.405 µM)
- MIC (Propionibacterium acnes [2]; P. acnes strain 5246): 0.06 µg/mL (≈ 0.0486 µM)
- MIC (Propionibacterium acnes [2]; P. acnes strain 5292): 0.06 µg/mL (≈ 0.0486 µM)
- MIC (Clostridium difficile [3]): 32 µg/mL (≈ 25.9 µM)
- MIC (Clostridium perfringens): 0.5 µg/mL (≈ 0.405 µM)
- MIC (Clostridium septicum): 2 µg/mL (≈ 1.62 µM)
- MIC (Peptococcus prevoti): ≤ 0.25 µg/mL
- MIC [4]: ≤ 0.25 µg/mL
- MIC [5]: 1.0 µg/mL (≈ 0.811 µM)
- MIC (Propionibacterium acnes [6]): ≤ 0.25 µg/mL
- MIC (Bacteroides fragilis; Bacteroides fragilis 1877): 32 µg/mL (≈ 25.9 µM)
- MIC (Bacteroides fragilis; Bacteroides fragilis 1936B): 64 µg/mL (≈ 51.9 µM)
- MIC [7]: 64 µg/mL (≈ 51.9 µM)
- MIC [8]: 4 µg/mL (≈ 3.24 µM)
- MIC (Bacteroides vulgatis): 32 µg/mL (≈ 25.9 µM)
- MIC (Bacteroides corrodens): 64 µg/mL (≈ 51.9 µM)
- MIC (Fusobacterium symbiosum): 1.0 µg/mL (≈ 0.811 µM)
- MIC [9]: 8 µg/mL (≈ 6.49 µM)
- MIC (Clostridium difficile [10]; Clostridium difficile 78): 1.0 µg/mL (≈ 0.811 µM)
- MIC (Clostridium difficile [10]; Clostridium difficile 107B): 1.0 µg/mL (≈ 0.811 µM)
- MIC (Clostridium difficile [10]; Clostridium difficile 111F): 1.0 µg/mL (≈ 0.811 µM)
- MIC (Clostridium difficile [10]; Clostridium difficile 1153): 1.0 µg/mL (≈ 0.811 µM)
- MIC (Clostridium difficile [10]; Clostridium difficile 2634): 1.0 µg/mL (≈ 0.811 µM)
- MIC (Clostridium difficile [10]; Clostridium difficile 3424-5B): 1.0 µg/mL (≈ 0.811 µM)
- MIC (Clostridium difficile [10]; Clostridium difficile 3816): 1.0 µg/mL (≈ 0.811 µM)
- MIC (Clostridium difficile [10]; Clostridium difficile 3950D): 1.0 µg/mL (≈ 0.811 µM)
- MIC (Clostridium difficile [10]; Clostridium difficile 6890): 1.0 µg/mL (≈ 0.811 µM)
- MIC (Clostridium difficile [10]; Clostridium difficile 8484): 1.0 µg/mL (≈ 0.811 µM)
- MIC (Clostridium difficile [10]; Clostridium difficile A-194): 1.0 µg/mL (≈ 0.811 µM)
- MIC (Clostridium difficile [10]; Clostridium difficile A-195): 1.0 µg/mL (≈ 0.811 µM)
- MIC (Clostridium difficile [10]; Clostridium difficile A-196): 1.0 µg/mL (≈ 0.811 µM)
- MIC (Clostridium difficile [10]; Clostridium difficile A-279): 1.0 µg/mL (≈ 0.811 µM)
- MIC (Clostridium difficile [10]; Clostridium difficile A-280): 1.0 µg/mL (≈ 0.811 µM)
- MIC (Clostridium difficile [10]; Clostridium difficile A-281): 1.0 µg/mL (≈ 0.811 µM)
- MIC (Clostridium difficile [10]; Clostridium difficile WAL-2112): 1.0 µg/mL (≈ 0.811 µM)
- MIC (Clostridium difficile [10]; Clostridium difficile WAL-3657): 1.0 µg/mL (≈ 0.811 µM)
- MIC (Clostridium difficile [10]; Clostridium difficile WAL-4268): 1.0 µg/mL (≈ 0.811 µM)
- MIC (Staphylococcus aureus): 0.25 µg/mL (≈ 0.203 µM)
- MIC [11]: 1 µg/mL (≈ 0.811 µM)
- MIC (Streptococcus pyogenes): 0.5 µg/mL (≈ 0.405 µM)
- MIC (Streptococcus pneumoniae): 0.5 µg/mL (≈ 0.405 µM)
- MIC ([12]; Streptococcus sp. Group D 9960, 24 hours): 2 µg/mL (≈ 1.62 µM)
- MIC ([12]; Streptococcus sp. Group D X66, 24 hours): 1 µg/mL (≈ 0.811 µM)
- MIC (Haemophilus influenzae; Haemophilus influenzae 251, 24 hours): 2 µg/mL (≈ 1.62 µM)
- MIC (Haemophilus influenzae; Haemophilus influenzae Brun, 24 hours): 8 µg/mL (≈ 6.49 µM)
- in vivo oral activity (S. pyogenes): > 300 mg./kg.×2
- concentration at which activity in vitro was shown (pseudorabies): 20 µg/mL
- LD50 [13]: > 300 mg/kg
- acute toxicity [13]: > 300 mg/kg
